# Patent publication US7592326B2, “Method for stimulating the immune, inflammatory or neuroprotective response” (priority 2004, dated 2009)
# Key:
# DCs = test: DC apoptosis (FITC-Annexin V/PI double staining); assay type: cell-based, human; details: 24 h
# Method: FITC-Annexin V/Propidium Iodure (PI) double staining was used to detect apoptosis of DCs treated with c-di-GMP. Immature and mature DCs, untreated or treated with c-di-GMP for 24 h, were harvested and washed twice with ice cold PBS; specific binding of FITC-annexin V and staining with PI was performed with an apoptosis detection kit accordingly to the manufacturer's instructions. The cells were then analyzed by flow cytometry.
# p38 MAPK = test: Western blot signaling in human macrophages: p38 MAPK; assay type: cell-based; details: human M-CSF-induced monocyte-derived macrophages
# Method: (§1) Preparation of macrophages was performed as previously described (Akagawa et al., 1996). Briefly, fully differentiated macrophages from human PBMC were isolated from leukapheresis preparations obtained by the Blood Bank, Clinical Center, National Institutes of Health, Bethesda, Md. The leukocyte-rich preparation was overlaid on Accu-prep in 50 ml tubes and the tubes were centrifuged at 800 × g for 20 min at room temperature. PBMC fractions were collected, washed once with PBS at room temperature and twice with complete medium at 4° C. and resuspended in the same medium. Monocytes were further purified by using iso-osmotic Percoll gradient (Amersham Biosciences). At this stage, the purity of monocytes was higher than 90%. One and half million cells were placed on a 12-well plate in 1.5 ml RPMI1640 containing 50 ng/ml human M-CSF. On day 4, 1 ml of the medium was replaced with 1 ml of fresh medium containing 50 ng human M-CSF. On day 7, non-adherent cells were washed out and adherent cells were used as macrophages.
# Western blot analysis of macrophages was performed as previously described (Matsuyama et al., 2003). Briefly, prepared macrophages were starved in RPMI 1640 without FCS for 10 h. […] Proteins were analyzed on 12% polyacrylamide gels by SDS-PAGE and transferred electrophoretically to nitrocellulose membranes at 150 mA for 1 h in a semi-dry system. […]
# S. aureus strain NCH57 = test: Mouse S. aureus pneumonia (proposed); assay type: in vivo; details: 200 nmol 24- and 48 hours prior; 1×10^9 CFU NCH57
# [1] = assay type: in vitro ADME, human
# Method: Commercially supplied pooled human serum (100 uL) (Cambrex Bio Science Walkersville, Inc.) was diluted in ion-exchanged water. An aliquot of the resulting human serum solution was subjected to HPLC analysis (conditions: COSMOSIL 5C18-AR-II column (4.6×200 mm); buffer A; buffer B, 80% acetonitrile in water; gradient, 0-10 min A 100%, 10-60 min A:B=100:0 to A:B=40:60 in 50 min; detection 254 nm, flow rate, 1.0 mL/min, temperature 40° C.). Separately, a 100 uM of c-di-GMP solution in human serum was prepared by adding 100 uL of a 500 uM c-di-GMP aqueous solution to a mixture of 390 uL of human serum and 10 uL of 40 mM 2-methylbenzimidazole (an internal standard for estimating the extent of decomposition of c-di-GMP) in methanol. An aliquot of the test solution was diluted immediately after the preparation solution and then heated at 100° C. for 5 min to quench activity of enzymes. The resulting test sample was subjected to HPLC analysis after 24 h treatment. Peaks that appeared in both analyses were compared. Results are based on 3 independent experiments.
# ERK = test: Western blot signaling in human macrophages: ERK; assay type: cell-based
# Method: as §1
# Western blot analysis of macrophages was performed as previously described (Matsuyama et al., 2003). Briefly, prepared macrophages were starved in RPMI 1640 without FCS for 10 h. Cells were rinsed three times with PBS, and treated with cyclic dinucleotide for various times. Cells were lysed on ice for 20 min in a buffer containing 50 mM NaCl, 20 mM Tris-HCl, 50 mM sodium fluoride, 30 mM Na4P207, 5 mM EGTA, 3 mM sodium orthovanadate, 1% Triton X-100, 1 mg/ml leupeptin, 1 mM PMSF, 1 mg/ml aprotinin, 1 mg/ml pepstatin A and 100 mM sodium orthovanadate pre-treated with H202. The lysates were spun in a microcentrifuge for 20 min and the supernatants were collected. Proteins were analyzed on 12% polyacrylamide gels by SDS-PAGE and transferred electrophoretically to nitrocellulose membranes at 150 mA for 1 h in a semi-dry system. The membranes were incubated with an antibody against either phosphorylated or nonphosphorylated p38 MAP kinase or ERK, followed by an appropriate secondary Ab coupled with horseradish peroxidase. […]
# S. aureus Newbould 305 = test: Mouse model of S. aureus-induced mastitis, prophylactic pre-treatment; assay type: in vivo; details: for reduction of the mean bacterial CFU in tissues compared to untreated control: lactating CD-1 mice, 10 h infection
# Method: The well-characterized mouse model of S. aureus-induced mastitis (see Brouillette et al., 2005 for review) was used to evaluate the capacity of c-di-GMP to act as a prophylactic agent. S. aureus is a Gram-positive bacterial pathogen. The protocol used here is similar to that described in a previous study (Brouillette et al., 2005), except that the c-di-GMP molecule was administered before infection of mammary glands, instead of after, in order to evaluate its prophylactic capacity. […] For inoculation, 100 cfu of S. aureus Newbould 305 (ATCC 29740) were injected in each gland and the colonization allowed for 10 h. Raw bacterial cfu counts obtained after plating serial logarithmic dilutions of mammary gland homogenates were transformed in base-10 logarithm values. The experiment was repeated and data combined for a total of 9 mice (18 glands) per group. Since values passed the normality test, bacterial counts were analyzed for statistical significance using the One-way analysis of variance test combined with the Tukey post test (GraphPad Instat, version 3.06). The institutional ethics committee on animal experimentation of the Faculté des sciences of Université de Sherbrooke approved these experiments and were carried out following the guidelines of the Canadian Council on Animal Care.
# [2] = tested on: Plasmacytoid dendritic cells (pDCs); test: IFN secretion by human plasmacytoid dendritic cells; assay type: cell-based; details: two independent experiments in duplicate; data not shown
# Method: Venipuncture was performed on consenting adults using approved protocols. Plasmacytoid dendritic cells (pDCs) were prepared, as previously described (Schroeder et al., 2005), using a 2-step procedure involving Percoll density centrifugation followed with selection for Blood Dendritic Cell Antigen (BDCA)-4 positive cells (Miltenyi Biotec, Inc., Auburn, Calif.). The capacity of c-di-GMP to induce IFN-alpha from these cells was assessed using cell culture and ELISA protocols also previously described (Schroeder et al., 2005) and was simultaneously compared to the […] produced by pDC in response to cells stimulated with CpG oligodeoxynucleotide (ODN)-2216 (Krieg, 2002).
# [3] = tested on: influenza virus A/Puerto Rico/8/34 (H1N1, PR8); details: in vivo
# [4] = 200 nmol intramammary 12 h and 6 h prior to challenge, P<0.001
compound,measurement,setting,value
"Nc1nc(=O)c2ncn([C@@H]3OC4COP(=O)(O)O[C@H]5[C@@H](O)[C@H](n6cnc7c(=O)nc(N)[nH]c76)O[C@@H]5COP(=O)(O)OC4C3O)c2[nH]1 (stereo partly drawn) [c-di-GMP, Bis(3′→5′)-cyclic diguanylic acid]",Early apoptosis (% of annexin V^+/PI^− cells),DCs; cdiGMP 5 μM,23%
same,Late apoptosis (% of annexin V^+/PI^+ cells),DCs; cdiGMP 5 μM,36%
same,Early apoptosis (% of annexin V^+/PI^− cells),DCs; cdiGMP 50 μM,31%
same,Late apoptosis (% of annexin V^+/PI^+ cells),DCs; cdiGMP 50 μM,40%
same,Early apoptosis (% of annexin V^+/PI^− cells),DCs; cdiGMP 100 μM,18%
same,Late apoptosis (% of annexin V^+/PI^+ cells),DCs; cdiGMP 100 μM,42%
same,effect on DC apoptosis,DCs; immature and mature DCs,did not appear to have any effect
same,phosphorylation of p38 MAPK,p38 MAPK,no phosphorylation
same,survival,S. aureus strain NCH57,greater survival
same,stability in human serum,[1],stable
same,ERK phosphorylation,"ERK; 10- and 100 uM, human macrophages, FIG. 13B",activate
same,time of peak ERK phosphorylation,ERK; absent at 20 min,5 min
same,magnitude of ERK phosphorylation relative to LPS,ERK; under the conditions tested,weaker
same,reduction of the mean bacterial CFU in tissues compared to untreated control,"S. aureus Newbould 305; 50 nmol intramammary 12 h and 6 h prior to challenge, P<0.05",1.5 log
same,reduction in CFUs in tissues,S. aureus Newbould 305; [4],"10,000 fold"
same,reduction of the mean bacterial CFU in tissues compared to untreated control,S. aureus Newbould 305; [4],3.8 log
same,induction of Type I IFN from pDC,[2],negative
same,outcome compared to control mice,[3],"increased survival, less weight loss"
